The values that follow come from PMC12292791, “Insights into Membrane Damage by α-Helical and β-Sheet Peptides” (Biomolecules, 2025).

Data set [1] in a line: ANTS/DPX dye leakage assay with large unilamellar vesicles. The class given is biochemical. The following applies: 500 µM lipid. As to the method:
Large unilamellar vesicles were prepared using a modified procedure from Wimley. Individual solutions of 1-palmitoyl-2-oleoyl-glycero-3-phosphocholine (POPC) and 1-palmitoyl-2-oleoyl-sn-glycero-3-phospho-(1’-rac-glycerol) (sodium salt) (POPG) lipids (Avanti Research, Alabaster, AL, USA) in chloroform were mixed in a 7:3 mol/mol POPC–POPG ratio, and the chloroform was gently evaporated under a stream of nitrogen gas. The lipid film was then dried in vacuo overnight. After complete evaporation of the chloroform, the lipid film was resuspended in the vesicle preparation buffer to yield a 25 mM lipid solution. The vesicle preparation buffer consisted of 45 mM KCl, 10 mM Tris HCl, 8 mM 8-aminonaphthalene-1,3,6-trisulfonic acid disodium salt (ANTS) (Fisher Scientific Inc., Waltham, MA, USA), and 32 mM p-xylene-bis-pyridinium bromide (DPX) (Fisher Scientific, Inc.). The lipid film was allowed to dissolve in the vesicle preparation buffer for approximately 15 min. If any lipid film remained on the side of the tube, the solution was gently pipetted up and down to mix the film with the liposome suspension. Once the film was thoroughly dissolved, the lipid suspension was subjected to 10 freeze/thaw cycles using a dry ice/ethanol bath and a 60 °C water bath to facilitate encapsulation of the fluorophore and quencher pair (ANTS and DPX). […]
Lyophilized peptide was dissolved in the liposome elution buffer at a volume corresponding to half the total volume needed for the experiment. The liposome solution was diluted to 1 mM lipid from the concentration calculated using the phosphorus concentration method described above. […]
Fluorescence measurements were conducted on a Tecan Spark® 20M plate reader (Tecan, Männedorf, Zurich, Switzerland). […] The wells were excited at 355 nm with a bandwidth of 5 nm, and emission was monitored at a wavelength of 520 nm with a bandwidth of 10 nm. The gain and z-position were calculated using a well containing liposomes lysed with reduced Triton^TM X-100 (Sigma-Aldrich) to produce maximum fluorescence. […]
To ensure accurate comparison across batches of liposomes, the percentage leakage was calculated using the formula: PercentLeakage=F−F0/Flysed−F0×100 where F is the relative fluorescence (RF) at time t, F0 is the RF at t=0 , and Flysed is the RF after the addition of detergent. Since leakage occurred immediately upon mixing the liposome and peptide solutions, the initial fluorescence ( F0 ) was determined by adding the relative fluorescence of liposomes alone to the relative fluorescence of the peptide in the elution buffer at each relevant concentration. […] Leakage experiments were performed at least in triplicate, and error bars were calculated as the standard deviation about the mean. […]

Data set [2] in a line: Solubility in liquid elution buffer observed during CD measurements. The class given is physicochemical. The following applies: liposome elution buffer (75 mM KCl, 20 mM Tris HCl), lyophilized peptide dissolved, 25 °C CD samples. As to the method:
Circular dichroism (CD) spectra were recorded using a Jasco-815 circular dichroism spectrometer with a 0.1 mm path-length quartz cuvette. Scans were performed at 25 °C in duplicate, covering the wavelength range of 190–260 nm. The scanning parameters included a 1.0 nm data pitch, 1.0 nm bandwidth, and a scanning speed of 100 nm/min.
Additionally, the spectra recorded in the presence of the LUVs differed from those recorded in buffer alone. […] At peptide concentrations higher than 500 µM, M03 began to lose solubility, while M04 began to precipitate from solution at concentrations higher than 200 µM. The reduced solubility of M04 was likely due to the orientation of all its hydrophobic residues on one face of the α -helix, making it more prone to aggregation in aqueous solutions. […] It is also important to note that the CD spectra of M03 and M04 were noticeably different from each other. This underscores the effect that varying the sequence pattern, even slightly, can have on the resulting peptide properties.

The conditions of data set [3]: immediately upon dissolution in aqueous solvent; cited from earlier work. The source says: In the following section, we discuss the secondary structure and membrane damage properties of M03 and M04. […] This happened immediately upon dissolution in aqueous solvent; likely before it was able to interact with the membranes. Therefore, it was difficult to determine the effect of M01 peptides on membranes experimentally, as the leakage observed was likely due to mechanical disruption of the liposomes as the peptide monomers assembled ...

Peptide text beside a SMILES is read from it.

Turning to `CC(=O)N[C@@H](Cc1ccccc1)C(=O)N[C@@H](Cc1ccccc1)C(=O)N[C@@H](CCCCN)C(=O)N[C@@H](CCCCN)C(=O)N[C@@H](Cc1ccccc1)C(=O)N[C@@H](Cc1ccccc1)C(=O)N[C@@H](CCC(=O)O)C(=O)N[C@@H](CCC(=O)O)C(N)=O` [Peptide M02, Ac-FFKKFFEE-NH2] (Ac-FFKKFFEE-NH2), the leakage result in data set [1] (peptide 100 µM, 500 µM and 1 mM (P:L 1:5, 1:1, 2:1), 7:3 POPC–POPG LUVs, ANTS/DPX) is listed as “minimal leakage”.
For the molecule `CC(=O)N[C@@H](Cc1ccccc1)C(=O)N[C@@H](Cc1ccccc1)C(=O)N[C@@H](CCCCN)C(=O)N[C@@H](CCCCN)C(=O)N[C@@H](Cc1ccccc1)C(=O)N[C@@H](Cc1ccccc1)C(=O)N[C@@H](CCC(=O)O)C(=O)N[C@@H](CCC(=O)O)C(=O)N[C@@H](Cc1ccccc1)C(=O)N[C@@H](Cc1ccccc1)C(=O)N[C@@H](CCCCN)C(=O)N[C@@H](CCCCN)C(=O)N[C@@H](Cc1ccccc1)C(=O)N[C@@H](Cc1ccccc1)C(=O)N[C@@H](CCC(=O)O)C(=O)N[C@@H](CCC(=O)O)C(N)=O` [Peptide M03, Ac-(FFKKFFEE)2-NH2] (Ac-FFKKFFEEFFKKFFEE-NH2), the “peptide concentration above which the peptide begins to lose solubility / precipitate” value in data set [2] was “higher than 500 µM”. Also, in data set [1] (all P:L ratios tested (1:50, 2:50, 1:10, 1:5, 2:5), ANTS/DPX in 7:3 POPC–POPG LUVs, 75 mM KCl/20 mM Tris HCl, room temperature, fluorescence ex 355/em 520 nm, at least triplicate), the percentage of leakage entry is “greater than 80%”.
On to `CC(=O)N[C@@H](Cc1ccccc1)C(=O)N[C@@H](Cc1ccccc1)C(=O)N[C@@H](CCCCN)C(=O)N[C@@H](CCCCN)C(=O)N[C@@H](Cc1ccccc1)C(=O)N[C@@H](Cc1ccccc1)C(=O)N[C@@H](CCC(=O)O)C(=O)N[C@@H](CCC(=O)O)C(=O)N[C@@H](Cc1ccccc1)C(=O)N[C@@H](CCCCN)C(=O)N[C@@H](CCCCN)C(=O)N[C@@H](Cc1ccccc1)C(=O)N[C@@H](Cc1ccccc1)C(=O)N[C@@H](CCC(=O)O)C(=O)N[C@@H](CCC(=O)O)C(=O)N[C@@H](Cc1ccccc1)C(N)=O` [Peptide M04, Ac-FFKKFFEEFKKFFEEF-NH2] (Ac-FFKKFFEEFKKFFEEF-NH2), for which the “peptide concentration above which the peptide begins to lose solubility / precipitate” value in data set [2] is on record as “higher than 200 µM”. Further, the percentage of leakage entry in data set [1] (P:L 1:50 (lowest ratio), ANTS/DPX in 7:3 POPC–POPG LUVs, 75 mM KCl/20 mM Tris HCl, fluorescence, at least triplicate) is given as “no leakage”. The “percentage of leakage (damage)” value in data set [1] (P:L 2:50, ANTS/DPX in 7:3 POPC–POPG LUVs, 75 mM KCl/20 mM Tris HCl, fluorescence, at least triplicate) is 21%.
As to “Ac-FKFEFKFE-NH2 [Peptide M01, 8-residue amphipathic β-sheet forming peptide]”, the self-assembly / aggregation result in data set [3] is recorded as “self-assembled into supramolecular β -sheet rich fibers”.
